Data from patent publication US8569344B2, “N-piperidinyl acetamide derivatives as calcium channel blockers” (Zalicus Pharmaceuticals Ltd., priority 2008, dated 2013).
Where two headings read alike, the source gives them in different places.

Assays:
Assay type in all cases: cell-based
[1] = target: T1, human α1G T-type channels (Homo sapiens, UniProt O43497); test: T-type calcium channel block, whole cell patch clamp in HEK cells (α1G); details: HEK cells, patch clamp, mainly non-inactivated protocol; values above 10 μM shown as 10 μM, below 0.30 μM shown as 0.30 μM; read-out: T-type Calcium Channel Block α1G IC50
T1 construct: expressed in transfected cells; host or cells: HEK 293

[2] = target: T2, human α1H T-type channels (Homo sapiens, UniProt O95180); test: T-type calcium channel block, whole cell patch clamp in HEK cells (α1H); details: HEK cells, patch clamp, mainly non-inactivated protocol; values above 10 μM shown as 10 μM; read-out: T-type Calcium Channel Block α1H IC50
T2 construct: expressed in transfected cells; host or cells: HEK 293
T2 sequence (O95180 whole entry): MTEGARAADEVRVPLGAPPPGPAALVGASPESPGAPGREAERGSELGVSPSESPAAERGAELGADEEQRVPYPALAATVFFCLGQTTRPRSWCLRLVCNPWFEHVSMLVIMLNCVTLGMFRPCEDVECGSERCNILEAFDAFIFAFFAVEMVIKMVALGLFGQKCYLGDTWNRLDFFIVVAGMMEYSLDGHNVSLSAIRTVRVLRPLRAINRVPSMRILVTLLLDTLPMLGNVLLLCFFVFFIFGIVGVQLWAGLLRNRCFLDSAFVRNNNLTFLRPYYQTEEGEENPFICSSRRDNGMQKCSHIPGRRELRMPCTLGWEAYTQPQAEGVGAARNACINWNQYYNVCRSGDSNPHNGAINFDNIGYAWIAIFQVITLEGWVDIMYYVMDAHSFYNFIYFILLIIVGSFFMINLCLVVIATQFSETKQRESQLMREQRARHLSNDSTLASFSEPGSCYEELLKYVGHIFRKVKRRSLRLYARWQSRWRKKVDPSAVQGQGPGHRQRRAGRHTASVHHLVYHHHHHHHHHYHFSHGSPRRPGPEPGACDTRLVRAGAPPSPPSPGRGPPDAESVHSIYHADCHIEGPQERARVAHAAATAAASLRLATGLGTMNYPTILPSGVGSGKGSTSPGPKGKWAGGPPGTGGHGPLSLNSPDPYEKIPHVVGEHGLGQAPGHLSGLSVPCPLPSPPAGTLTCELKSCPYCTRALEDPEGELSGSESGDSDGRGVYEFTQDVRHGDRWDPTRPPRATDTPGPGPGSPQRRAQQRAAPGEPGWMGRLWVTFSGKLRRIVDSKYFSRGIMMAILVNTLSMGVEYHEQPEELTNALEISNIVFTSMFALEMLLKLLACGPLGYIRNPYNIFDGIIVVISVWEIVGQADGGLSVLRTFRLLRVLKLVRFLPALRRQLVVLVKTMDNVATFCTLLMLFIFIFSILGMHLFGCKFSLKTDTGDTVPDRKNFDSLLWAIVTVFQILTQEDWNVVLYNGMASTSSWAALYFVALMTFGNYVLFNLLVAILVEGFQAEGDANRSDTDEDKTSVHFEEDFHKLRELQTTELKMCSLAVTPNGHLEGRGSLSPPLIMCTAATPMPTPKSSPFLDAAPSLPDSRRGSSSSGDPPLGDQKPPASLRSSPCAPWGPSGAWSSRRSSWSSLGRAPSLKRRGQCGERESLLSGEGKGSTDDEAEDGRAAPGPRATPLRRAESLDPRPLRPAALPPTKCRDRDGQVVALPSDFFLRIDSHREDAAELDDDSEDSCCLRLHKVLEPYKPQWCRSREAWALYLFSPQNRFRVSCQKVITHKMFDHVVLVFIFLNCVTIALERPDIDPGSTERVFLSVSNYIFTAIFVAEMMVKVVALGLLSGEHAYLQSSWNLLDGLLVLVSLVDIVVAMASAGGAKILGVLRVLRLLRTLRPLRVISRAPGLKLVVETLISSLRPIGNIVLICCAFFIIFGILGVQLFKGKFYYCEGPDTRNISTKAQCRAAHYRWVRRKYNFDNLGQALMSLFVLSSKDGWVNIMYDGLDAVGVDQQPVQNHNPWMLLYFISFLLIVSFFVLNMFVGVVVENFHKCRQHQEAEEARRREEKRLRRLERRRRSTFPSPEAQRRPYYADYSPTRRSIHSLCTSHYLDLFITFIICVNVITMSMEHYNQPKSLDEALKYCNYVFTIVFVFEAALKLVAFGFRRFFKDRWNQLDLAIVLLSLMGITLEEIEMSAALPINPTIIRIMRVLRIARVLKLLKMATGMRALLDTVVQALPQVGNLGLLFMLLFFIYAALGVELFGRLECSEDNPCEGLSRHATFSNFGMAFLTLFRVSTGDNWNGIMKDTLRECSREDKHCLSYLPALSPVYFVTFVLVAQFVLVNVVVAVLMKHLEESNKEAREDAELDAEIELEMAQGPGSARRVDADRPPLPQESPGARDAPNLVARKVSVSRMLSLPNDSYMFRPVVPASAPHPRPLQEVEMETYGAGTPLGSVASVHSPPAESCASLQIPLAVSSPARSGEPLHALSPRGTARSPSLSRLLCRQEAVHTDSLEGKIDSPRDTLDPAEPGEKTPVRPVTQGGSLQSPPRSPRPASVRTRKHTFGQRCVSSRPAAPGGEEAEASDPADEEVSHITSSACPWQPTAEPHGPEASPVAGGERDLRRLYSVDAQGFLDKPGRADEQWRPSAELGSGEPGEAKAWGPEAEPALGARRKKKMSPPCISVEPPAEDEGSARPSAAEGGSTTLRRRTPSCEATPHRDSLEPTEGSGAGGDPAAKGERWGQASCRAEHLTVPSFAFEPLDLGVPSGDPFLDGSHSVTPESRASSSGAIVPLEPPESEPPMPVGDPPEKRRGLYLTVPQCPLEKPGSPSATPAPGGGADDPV

hERG K+ channel = hERG K+ channel (Homo sapiens, UniProt Q12809); test: hERG K+ Channel Block
Sequence of hERG K+ channel (Q12809 whole entry): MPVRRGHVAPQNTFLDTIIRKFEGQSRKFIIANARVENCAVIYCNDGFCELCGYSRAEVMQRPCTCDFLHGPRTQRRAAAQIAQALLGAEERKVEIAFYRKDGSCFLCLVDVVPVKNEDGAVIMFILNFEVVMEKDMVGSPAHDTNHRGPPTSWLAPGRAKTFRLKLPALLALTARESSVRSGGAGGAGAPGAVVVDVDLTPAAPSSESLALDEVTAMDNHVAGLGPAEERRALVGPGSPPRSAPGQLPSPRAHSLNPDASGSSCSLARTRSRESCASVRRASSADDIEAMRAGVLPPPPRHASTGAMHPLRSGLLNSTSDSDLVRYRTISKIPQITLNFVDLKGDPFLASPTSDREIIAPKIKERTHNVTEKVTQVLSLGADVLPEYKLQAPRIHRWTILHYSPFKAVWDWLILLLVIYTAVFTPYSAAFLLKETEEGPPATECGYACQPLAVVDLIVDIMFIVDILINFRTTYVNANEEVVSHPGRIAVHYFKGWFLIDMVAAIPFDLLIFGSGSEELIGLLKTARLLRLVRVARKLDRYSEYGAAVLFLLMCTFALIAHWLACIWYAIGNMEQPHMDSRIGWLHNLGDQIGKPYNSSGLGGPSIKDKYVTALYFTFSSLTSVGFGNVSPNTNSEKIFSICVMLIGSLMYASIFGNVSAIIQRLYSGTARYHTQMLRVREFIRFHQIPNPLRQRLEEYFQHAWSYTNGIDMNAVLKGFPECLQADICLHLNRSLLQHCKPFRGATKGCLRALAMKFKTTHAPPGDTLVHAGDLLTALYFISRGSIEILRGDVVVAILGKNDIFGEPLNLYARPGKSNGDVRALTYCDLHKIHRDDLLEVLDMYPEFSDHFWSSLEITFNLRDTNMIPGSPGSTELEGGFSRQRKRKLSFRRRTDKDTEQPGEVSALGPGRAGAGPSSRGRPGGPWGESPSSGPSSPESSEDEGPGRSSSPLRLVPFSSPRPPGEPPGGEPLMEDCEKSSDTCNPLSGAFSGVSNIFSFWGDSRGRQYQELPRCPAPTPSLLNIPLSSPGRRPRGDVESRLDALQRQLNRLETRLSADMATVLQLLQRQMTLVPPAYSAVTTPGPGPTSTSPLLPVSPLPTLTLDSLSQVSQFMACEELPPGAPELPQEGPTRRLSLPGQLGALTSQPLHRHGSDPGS

IC50 [1] | IC50 [2] | SMILES | IC50 (hERG K+ channel) | IC50 (hERG K+ channel; human)
310 nM | 410 nM | COc1cc(F)cc(C(=O)NCC2CCN(CC(=O)N(C)C(C)(C)C)CC2)c1 [Compound 541, N-((1-(2-(tert-butyl(methyl)amino)-2-oxoethyl)piperidin-4-yl)methyl)-3-fluoro-5-methoxybenzamide] |  | ≥ 17000 nM
< 300 nM | 90 nM | COc1cc(F)cc(C(=O)NCC2CCN(CCNC(=O)C3(C(F)(F)F)CCC3)CC2)c1 [Compound 513, 3-fluoro-5-methoxy-N-((1-(2-(1-(trifluoromethyl)cyclobutanecarboxamido)ethyl)piperidin-4-yl)methyl)benzamide] |  | ≥ 16600 nM
< 300 nM | 90 nM | CC(C)(C(=O)NCCN1CCC(CNC(=O)c2cc(F)cc(Cl)c2)CC1)C(F)(F)F [Compound 495, 3-chloro-5-fluoro-N-((1-(2-(3,3,3-trifluoro-2,2-dimethylpropanamido)ethyl)piperidin-4-yl)methyl)benzamide] | 4100 nM | 
< 300 nM | 30 nM | CC(C)(NC(=O)CN1CCC(CNC(=O)c2cccc(Cl)c2)CC1)C(F)(F)F [Compound 460, 3-chloro-N-((1-(2-oxo-2-(1,1,1-trifluoro-2-methylpropan-2-ylamino)ethyl)piperidin-4-yl)methyl)benzamide] | 6900 nM | 
< 300 nM | 140 nM | CC(C)(C)NC(=O)CN1CCC(CNC(=O)c2cccc(C(F)(F)F)c2)CC1 [Compound 371, N-((1-(2-(tert-butylamino)-2-oxoethyl)piperidin-4-yl)methyl)-3-(trifluoromethyl)benzamide] | 14700 nM | 
< 300 nM | 120 nM | COc1cc(F)cc(C(=O)NCC2CCN(CC(=O)NC(C)(C)C)CC2)c1 [Compound 366, N-((1-(2-(tert-butylamino)-2-oxoethyl)piperidin-4-yl)methyl)-3-fluoro-5-methoybenzamide] |  | ≥ 8300 nM
 | 200 nM | CC(C)CS(=O)(=O)NCCN1CCC(CNC(=O)c2cc(F)cc(C(F)(F)F)c2)CC1 [Compound 26, 3-fluoro-N-((1-(2-(2-methylpropylsulfonamido)ethyl)piperidin-4-yl)methyl)-5-(trifluoromethyl)benzamide] | 2600 nM | 
 | 160 nM | CN(C(=O)CN1CCC(CNC(=O)c2cc(F)cc(C(F)(F)F)c2)CC1)C1(C)CCC1 [Compound 594, 3-fluoro-N-((1-(2-(methyl(1-methylcyclobutyl)amino)-2-oxoethyl)piperidin-4-yl)methyl)-5-(trifluoromethyl)benzamide] |  | ≥ 17000 nM
< 300 nM |  | CC(C)S(=O)(=O)NCCN1CCC(CC(=O)Nc2cc(Br)cc(C(F)(F)F)c2)CC1 [Compound 391, N-(3-bromo-5-(trifluoromethyl)phenyl)-2-(1-(2-(1-methylethylsulfonamido)ethyl)piperidin-4-yl)acetamide] | 630 nM | 
< 300 nM | 90 nM | CC(C)(C)NC(=O)CN1CCC(CNC(=O)c2cc(Br)cc(Br)c2)CC1 [Compound 384, 3,5-dibromo-N-((1-(2-(tert-buylamino)-2-oxoethyl)piperidin-4-yl)methyl)benzamide] |  | 
> 10000 nM | > 10000 nM | CC(C)(C)NC(=O)CN1CCC(CNC(=O)c2cc(C(F)(F)F)ccn2)CC1 [Compound 372, N-((1-(2-(tert-butylamino)-2-oxoethyl)piperidin-4-yl)methyl)-4-(trifluoromethyl)picolinamide] |  | 
< 300 nM | 460 nM | CC(C(=O)N1CCC[C@@H]1C(F)(F)F)N1CCC(CNC(=O)c2cc(F)cc(Cl)c2)CC1 (stereo partly drawn) [Compound 558, 3-chloro-5-fluoro-N-((1-(1-oxo-1-((R)-2-(trifluoromethyl)pyrrolidin-1-yl)propan-2-yl)piperidin-4-yl)methyl) benzamide] |  | 
> 10000 nM | > 10000 nM | CCCNC(=O)CN1CCC(CNC(=O)c2cc(C)cc(F)c2)CC1 [Compound 446, 3-fluoro-5-methyl-N-((1-(2-oxo-2-(propylamino)ethyl)piperidin-4-yl)methyl)benzamide] |  | 
1720 nM | 1300 nM | CCCNC(=O)CN1CCC(CNC(=O)c2cc(F)cc(C(F)(F)F)c2)CC1 [Compound 351, 3-fluoro-N-((1-(2-oxo-2-(propylamino)ethyl)piperidin-4-yl)methyl)-5-(trifluoromethyl)benzamide] |  | 

The next lines start with the molecule.

SMILES | IC50 [1] | IC50 [2] | IC50 (hERG K+ channel) | IC50 (hERG K+ channel; human)
CN(C(=O)CN1CCC(CNC(=O)c2cc(F)cc(Cl)c2)CC1)C1(C)CCC1 [Compound 583, 3-chloro-5-fluoro-N-((1-(2-(methyl(1-methylcyclobutyl)amino)-2-oxoethyl)piperidin-4-yl)methyl)benzamide] | < 300 nM | 150 nM | 1700 nM | 
CC(C)(C)NC(=O)CN1CCC(CNC(=O)c2cccc(Br)c2)CC1 [Compound 374, 3-bromo-N-((1-(2-(tert-butylamino)-2-oxoethyl)piperidin-4-yl)methyl) benzamide] | < 300 nM | 90 nM | 7800 nM | 
COCC(C)(C)NC(=O)CN1CCC(CNC(=O)c2cc(F)cc(OC)c2)CC1 [Compound 567, 3-fluoro-5-methoxy-N-((1-(2-(1-methoxy-2-methylpropan-2-ylamino)-2-oxoethyl)piperidin-4-yl)methyl)benzamide] | < 300 nM | 350 nM |  | ≥ 17000 nM
COc1cc(OC)cc(C(=O)NCC2CCN(CCNC(=O)C3(C(F)(F)F)CC3)CC2)c1 [Compound 500, 3,5-dimethoxy-N-((1-(2-(1-(trifluoromethyl)cyclopropanecarbox-amido)ethyl)piperidin-4-yl)methyl) benzamide] | < 300 nM | 180 nM | 5500 nM | 
O=C(NCC1CCN(CC(=O)N2CCC[C@H]2C(F)(F)F)CC1)c1cccc(Cl)c1 [Compound 469, (S)-3-chloro-N-((1-(2-oxo-2-(2-(trifluoromethyl)pyrrolidin-1-yl)ethyl)piperidin-4-yl)methyl)benzamide] | < 300 nM | 120 nM | 9500 nM | 
O=C(NCC1CCN(CCNS(=O)(=O)C(F)(F)F)CC1)c1cc(Br)cc(C(F)(F)F)c1 [Compound 115, 3-bromo-5-(trifluoromethyl)-N-((1-(2-(trifluoromethylsulfonamido)ethyl)piperidin-4-yl)methyl)benzamide] |  | 230 nM |  | ≥ 8300 nM
COc1cc(F)cc(C(=O)NCC2CCN(CCNC(=O)C(C)(C)C(F)(F)F)CC2)c1 [Compound 490, 3-fluoro-5-methoxy-N-((1-(2-(3,3,3-trifluoro-2,2-dimethylpropanamido)ethyl)piperidin-4-yl)methyl)benzamide] | < 300 nM | 150 nM | 10900 nM | 
CN(C(=O)CN1CCC(CNC(=O)c2cc(F)cc(Cl)c2)CC1)C(C)(C)C [Compound 544, N-((1-(2-(tert-butyl(methyl)amino)-2-oxoethyl)piperidin-4-yl)methyl)-3-chloro-5-fluorobenzamide] | < 300 nM | 170 nM | 6000 nM | 
O=C(NCC1CCN(CCNC(=O)C2(C(F)(F)F)CC2)CC1)c1cc(F)cc(Cl)c1 [Compound 472, 3-chloro-5-fluoro-N-((1-(2-(1-(trifluoromethyl)cyclopropanecarbox-amido)ethyl)piperidin-4-yl)methyl) benzamide] | < 300 nM | 40 nM | 2800 nM | 
O=C(NCC1CCN(CCNC(=O)C2CC2)CC1)c1cc(C(F)(F)F)cc(C(F)(F)F)c1 [Compound 59, N-((1-(2-(cyclopropanecarboxamido)ethyl)piperidin-4-yl)methyl)-3,5-bis(trifluoromethyl)benzamide] |  | 1660 nM | 2800 nM | 
CC(C)CS(=O)(=O)NCCN1CCC(CC(=O)Nc2cc(F)cc(C(F)(F)F)c2)CC1 [Compound 427, N-(3-fluoro-5-(trifluoromethyl)phenyl)-2-(1-(2-(2-methylpropylsulfonamido)ethyl)piperidin-4-yl)acetamide] | < 300 nM |  | 450 nM | 
COc1cc(F)cc(C(=O)NCC2CCN(CC(=O)NCC(C)(C)F)CC2)c1 [Compound 557, 3-fluoro-N-((1-(2-(2-fluoro-2-methylpropylamino)-2-oxoethyl)piperidin-4-yl)methyl)-5-methoxy-benzamide] | 3580 nM | 1310 nM |  | 
O=C(CN1CCC(CNC(=O)c2cc(F)cc(Cl)c2)CC1)NC1(C2CCOCC2)CC1 [Compound 563, 3-chloro-5-fluoro-N-((1-(2-oxo-2-(1-(tetrahydro-2H-pyran-4-yl)cyclopropylamino)ethyl)piperidin-4-yl)methyl)benzamide] | < 300 nM | 310 nM |  | 
O=C(NCC1CCN(CCNC(=O)C2(C(F)(F)F)CC2)CC1)c1cc(C(F)(F)F)cc(C(F)(F)F)c1 [Compound 342, 3,5-bis(trifluoromethyl)-N-((1-(2-(1-(trifluoromethyl)cyclopropanecarbox-amido)ethyl)piperidin-4-yl)methyl) benzamide] | < 300 nM | 70 nM |  | 
CC(C)NC(=O)CN1CCC(CNC(=O)c2cc(F)cc(C(F)(F)F)c2)CC1 [Compound 350, 3-fluoro-N-((1-(2-(isopropylamino)-2-oxoethyl)piperidin-4-yl)methyl)-5-(trifluoromethyl)benzamide] | 910 nM | 750 nM |  | 
CC(C)(C(=O)NCCN1CCC(CNC(=O)c2cccc(OC(F)(F)F)c2)CC1)C(F)(F)F [Compound 496, N-((1-(2-(3,3,3-trifluoro-2,2-dimethylpropanamido)ethyl)piperidin-4-yl)methyl)-3-(trifluoromethoxy)benzamide] | < 300 nM | 90 nM |  | 
COc1cc(C(=O)NCC2CCN(CCNS(=O)(=O)C3CC3)CC2)cc(C(F)(F)F)c1 [Compound 235, N-((1-(2-(cyclopropanesulfonamido)ethyl)piperidin-4-yl)methyl)-3-methoxy-5-(trifluoromethyl)benzamide] | < 300 nM | 440 nM |  | 
